Data published in patent US20100204182A1, “ECTONUCLEOTIDASE INHIBITORS” (RHEINISCHE FRIEDRICH-WILHELMS-UNIVERSITAT BONN, priority 2006, published 2010).

Legend:
[1] = target: rP2Y6 (Rattus norvegicus, UniProt Q63371); assay: Inhibition of UDP binding at rP2Y6; conditions: read-out: rP2Y6 % inhibition of UDP binding at 100 μM, n = 3, mean ± SEM
[2] = target: T1, human NTPDase3 (Homo sapiens, UniProt O75355); assay: NTPDase inhibition assay by capillary electrophoresis (CE), NTPDase3; assay type: biochemical; conditions: ATP 320 μM; for inhibition at 1000 µM: 1 mM compound; for Ki: CE method, Km 75 μM, read-out: NTPDase3 Ki [μM] ± SEM
T1 sequence (O75355 1-529): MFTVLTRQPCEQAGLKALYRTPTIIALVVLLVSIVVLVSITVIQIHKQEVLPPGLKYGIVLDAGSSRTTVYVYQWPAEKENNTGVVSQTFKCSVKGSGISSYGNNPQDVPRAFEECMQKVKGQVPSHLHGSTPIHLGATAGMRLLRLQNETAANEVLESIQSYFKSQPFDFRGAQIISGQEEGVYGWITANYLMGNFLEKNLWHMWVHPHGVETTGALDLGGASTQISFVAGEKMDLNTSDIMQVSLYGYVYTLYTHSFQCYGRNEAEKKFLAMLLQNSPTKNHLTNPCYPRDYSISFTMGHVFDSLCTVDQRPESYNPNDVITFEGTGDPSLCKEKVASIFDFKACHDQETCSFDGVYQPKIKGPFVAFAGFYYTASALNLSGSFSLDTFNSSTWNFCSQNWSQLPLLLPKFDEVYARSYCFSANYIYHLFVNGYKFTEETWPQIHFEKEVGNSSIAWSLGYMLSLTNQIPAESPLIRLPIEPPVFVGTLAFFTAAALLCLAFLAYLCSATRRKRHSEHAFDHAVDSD
Description: (§1) The applied enzyme inhibition assay has been described (Iqbal J, Vollmayer P, Braun N, Zimmermann H, Müller C E. A capillary electrophoresis method for the characterization of ecto-nucleoside triphosphate diphosphohydrolases (NTPDases) and the analysis of inhibitors by in-capillary enzymatic microreaction. Purinergic Signalling 2005, 1, 349-358).
(§2) A. CE instrumentation: All experiments were carried out using a P/ACE MDQ capillary electrophoresis system (Beckman Instruments, Fullerton, Calif., USA) equipped with a UV detection system coupled with a diode-array detector (DAD). Data collection and peak area analysis were performed by the P/ACE MDQ software 32 KARAT obtained from Beckman Coulter. The capillary temperature was kept constant at 25° C. The temperature of the sample storing unit was also adjusted to 25° C. The electrophoretic separations were carried out using an eCAP polyacrylamide-coated fused-silica capillary [(30 cm (20 cm effective length)×50 μm internal diameter (I.D.)×360 μm outside diameter (O.D.), obtained from CS-Chromatographie (Langerwehe, Germany)]. The separation was performed using an applied current of −60 μA and a data acquisition rate of 8 Hz. Analytes were detected using direct UV absorbance at 210 nm. The capillary was conditioned by rinsing with water for 2 min and subsequently with buffer (phosphate 50 mM, pH 6.5) for 1 min. Sample injections were made at the cathodic side of the capillary.
(§3) B. NTPDase inhibition assay by capillary electrophoresis: Enzyme inhibition assays were carried out at 37° C. in a final volume of 100 μl. The reaction mixture contained 320 μM of ATP (substrate) in reaction buffer. The reaction buffer contained 140 mM NaCl, 5 mM KCl, 1 mM MgCl2, 2 mM CaCl2, and 10 mM Hepes, pH 7.4.
(§4) Different concentrations of inhibitors dissolved in DMSO or water (10 μl) were added and the reaction was initiated by the addition of 10 μl of the appropriately diluted recombinant or native human or rat NTPDase enzyme. […] The mixture (final volume 100 μl) was incubated for 15 min and terminated by heating at 99° C. for 4 min. Aliquots of the reaction mixture (50 μl) were then transferred to mini-CE vials and injected into the CE instrument under the conditions described above. 20 μM of UMP was used as internal standard. Inhibition of NTPDase was tested over a range of 6 to 8 concentrations of test compound spanning 3 orders of magnitude to determine K1 values. Each analysis was repeated two times (in triplicates) in two separate experiments. The Cheng-Prusoff equation was used to calculate the K1 values from the IC50 values, determined by the non-linear curve fitting program PRISM® 3.0 (GraphPad, San Diego, Calif., USA). In table 1K, values of selected compounds as inhibitors of human NTPDases are given.

[3] = target: T2, human NTPDase1 (Homo sapiens, UniProt P49961); assay: NTPDase inhibition assay by capillary electrophoresis (CE), NTPDase1; assay type: biochemical; conditions: ATP 320 μM; for Ki: CE method, Km 17 μM, read-out: NTPDase1 Ki [μM] ± SEM
T2 sequence (P49961 1-510): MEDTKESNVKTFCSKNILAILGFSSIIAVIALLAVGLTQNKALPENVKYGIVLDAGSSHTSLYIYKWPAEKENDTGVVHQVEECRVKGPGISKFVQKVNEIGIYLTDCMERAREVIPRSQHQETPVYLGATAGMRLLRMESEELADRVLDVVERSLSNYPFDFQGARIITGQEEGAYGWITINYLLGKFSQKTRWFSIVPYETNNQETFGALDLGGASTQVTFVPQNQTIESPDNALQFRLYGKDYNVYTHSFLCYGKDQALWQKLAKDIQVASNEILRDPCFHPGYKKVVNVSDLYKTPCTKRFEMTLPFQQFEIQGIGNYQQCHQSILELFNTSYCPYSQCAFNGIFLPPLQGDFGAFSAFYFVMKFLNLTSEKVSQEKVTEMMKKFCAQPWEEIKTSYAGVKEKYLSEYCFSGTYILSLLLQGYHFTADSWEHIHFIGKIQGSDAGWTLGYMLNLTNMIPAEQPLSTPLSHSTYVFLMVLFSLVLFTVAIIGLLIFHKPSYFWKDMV
Summary of the method: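 Recombinant or native human NTPDase was run with 320 μM ATP in Hepes buffer pH 7.4 (NaCl, KCl, MgCl2, CaCl2) at 37° C for 15 min, stopped by heating at 99° C. Products were quantified by capillary electrophoresis (UV 210 nm, UMP internal standard). IC50 from 6-8 concentrations was converted to Ki by Cheng-Prusoff.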

[4] = target: T3, human NTPDase8 (Homo sapiens, UniProt Q5MY95); assay: NTPDase inhibition assay by capillary electrophoresis (CE), NTPDase8; assay type: biochemical; conditions: for inhibition at 1000 µM: human NTPDase8, 1 mM compound, ATP 320 μM; for Ki: read-out: NTPDase8 Ki [μM] ± SEM
T3 sequence (Q5MY95 1-495): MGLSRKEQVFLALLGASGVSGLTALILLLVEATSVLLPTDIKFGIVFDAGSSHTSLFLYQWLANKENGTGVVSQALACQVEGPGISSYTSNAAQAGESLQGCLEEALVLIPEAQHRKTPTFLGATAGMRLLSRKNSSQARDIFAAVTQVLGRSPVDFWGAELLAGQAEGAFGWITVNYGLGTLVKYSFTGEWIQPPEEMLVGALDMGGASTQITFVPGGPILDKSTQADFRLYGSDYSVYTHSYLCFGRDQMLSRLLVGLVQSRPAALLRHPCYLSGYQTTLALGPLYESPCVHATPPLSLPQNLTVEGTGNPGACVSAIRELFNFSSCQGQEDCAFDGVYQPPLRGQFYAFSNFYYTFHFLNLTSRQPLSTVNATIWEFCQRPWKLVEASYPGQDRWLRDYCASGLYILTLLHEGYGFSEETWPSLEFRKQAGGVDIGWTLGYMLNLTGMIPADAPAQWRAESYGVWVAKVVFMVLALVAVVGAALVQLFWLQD
Description: as §1, §2, §3, §4

Chain of rP2Y6 (Q63371 whole entry): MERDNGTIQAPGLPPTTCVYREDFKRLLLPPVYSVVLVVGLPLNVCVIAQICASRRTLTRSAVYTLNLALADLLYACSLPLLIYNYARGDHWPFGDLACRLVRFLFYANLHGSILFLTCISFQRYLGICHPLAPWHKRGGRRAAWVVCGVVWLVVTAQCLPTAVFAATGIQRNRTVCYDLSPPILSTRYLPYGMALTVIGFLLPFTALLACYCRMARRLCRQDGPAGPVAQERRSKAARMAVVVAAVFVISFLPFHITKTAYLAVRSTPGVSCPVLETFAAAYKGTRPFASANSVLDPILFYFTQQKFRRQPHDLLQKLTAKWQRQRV

| Compound | inhibition at 100 µM [1] [%] | inhibition at 1000 µM [2] [%] | Ki [2] [µM] | Ki [3] [µM] | inhibition at 1000 µM [4] [%] | Ki [4] [µM] | inhibition at 1000 µM ([3]; 1 mM compound) [%] |
| --- | --- | --- | --- | --- | --- | --- | --- |
| CCOP(=O)(Cc1ccc(NC(=O)CCNC(=O)[C@H]2O[C@@H](n3ccc(=O)[nH]c3=O)C(O)C2O)cc1)OCC (stereo in doubt) [Compound 3, 4-[3-((2S,3R,4S,5R)-5-(2,4-Dioxo-3,4-dihydropyrimidin-1(2H)-yl)-3,4-di-hydroxy-tetrahydrofurane-2-carboxamido)propaneamido]benzylphosphonic acid diethylester] | 7 ± 7 | 40 | > 200 | 55.2 ± 2.6 | 0 | > 100 | – |
| CCOP(=O)(Cc1ccc(NC(=O)CNC(=O)[C@H]2O[C@@H](n3ccc(=O)[nH]c3=O)C(O)C2O)cc1)OCC (stereo in doubt) [Compound 2, 4-[2-((2S,3R,4S,5R)-5-(2,4-Dioxo-3,4-dihydropyrimidin-1(2H)-yl)-3,4-dihydroxy-tetrahydrofurane-2-carboxamido)ethaneamido]benzylphosphonic acid diethylester] | -10 ± 10 | 0 | > 200 | > 50 | 0 | > 100 | 50 |
